Measured values as given in patent publication US20050260737A1, “Novel lipase gene from Bacillus sphaericus 205y” (priority 2004, published 2005).

Tests used:
[1] = system: recombinant lipase (Bacillus sphaericus 205y lipase expressed in E. coli); assay: Effect of organic solvents on crude recombinant lipase activity (organic solvent-tolerant test); type: biochemical; conditions: for Relative activity (%) at concentration of 25%: 25% (v/v) solvent (1 ml solvent/3 ml crude enzyme), 30 min, 37° C., shaking, relative to non-solvent control
Procedure: The mixture is allowed to stand still for 20-30 seconds until the aqueous phase was sedimented clearly from the solution of isooctane and fatty acids. The reaction mixture contains 0.01 M calcium chloride (20 μl), olive oil emulsion (2.5 ml) and crude enzyme (1 ml). The reaction mixture was continuously agitated by using a horizontal shaker at 200 rpm at 37° C. The reaction was stopped by adding isooctane (5 ml) to dissolve free fatty acids produced by olive oil hydrolysis. Lipase activity was determined by measuring the free fatty acids from the standard curve of free fatty acids. One unit of lipase activity was defined as 1.0 μmol of fatty acid liberated per min per ml.
After induction with IPTG (1 mM), 10 ml of cells were pelleted by centrifugation at 10,000 gram and resuspended in 10 ml of Phosphate buffer (PBS). The cells were mixed thoroughly, placed on ice, and sonicated with Branson sonicater (2 min, 30% duty cycle). The broken cells were pelleted and the supernantant were used in determining the lipase activity and organic solvent tolerant. Various organic solvents were tested at the concentration of 25% (v/v) by addition of 1 ml of organic solvent to 3 ml of crude enzyme. The reaction mixture was incubated for 30 minutes at 37° C. under shaking condition (200 rpm). Remaining activity was assayed under standard condition and expressed as the percent of the control value. For control, distilled water was added instead of solvent. The organic solvents used were hexane, ρ-xylene, benzene, dimethy sulfoxide, acetonitrile and hexadecane. Each experiment was done in triplicate.
Table 4: Effect of different organic solvents on crude recombinant lipase activity. Three milliliters of cell-free supernatant of the culture was incubated with 1 ml of organic solvents at 37° C. with shaking. The remaining lipase activity relative to the non-solvent containing control was measured.

isolate 205y = assay: Growth of isolate 205y in different organic solvents and concentrations; type: cell-based, Bacillus sphaericus 205y; parameters: Growth of isolate 205y: key to the marks not given beside the values; conditions: for Growth of isolate 205y: growth visually determined
Procedure: The Bacillus sphaericus 205y culture could be obtained from Enzyme and Microbial Technology Research Department of Biochemistry and Microbiology, Faculty of Science and Environmental Studies, University Putra Malaysia. One gram of soil is resuspended in 10 ml basal mineral […] supplemented with selected hydrocarbon (0.1% v/v). The basal media contained (w/v) K2HPO4 0.5%, NH4Cl (1.0%), Na2SO4 (2%), KNO3 (2%), MgSO4.7H2O (0.2%).
Selected hydrocarbons would either be benzene, toluene or mixture of both as their sole carbon and energy source. Pure isolates were prescreened in media spiked with 1% v/v hydrocarbon. Isolates were grouped into groups of good, moderate, acceptable and negative, based on the turbidity of the media (Inoue et al., 1989). Non-inoculated controls were also used to ensure that the turbidity is due to growth.

[2] = cited from earlier work
[3] = system: lipase secreted by Bacillus sphaericus 205y; assay: Effect of organic solvents on crude lipase secreted by Bacillus sphaericus 205y; type: biochemical; conditions: 25% (v/v) solvent
Procedure: Lipase activity is measured with olive oil emulsion as substrate (Kwon and Rhee. 1991). All reactions were performed at 37° C. for 15 minutes at shaking condition of 200 rpm unless otherwise indicated. One unit of lipase activity was defined as 1.0 μmol of fatty acid liberated per min per ml.
Bacillus sphaericus 205y is grown at 37° C. in M3 medium. The culture medium (24 h) is […] (0.25 μm pore size) as crude enzyme. Investigation of various effects of organic solvents at the concentration of 25% (v/v) (1 ml of organic solvent/3 ml of crude enzyme) on the lipase activity was done. The reaction mixture was incubated for 30 minutes at 37° C. under shaking condition (200 rpm).

Compound	Relative activity (%) at concentration of 25% [1]	Growth of isolate 205y (isolate 205y; Hydrocarbon 1% (v/v))	Growth of isolate 205y (isolate 205y; Hydrocarbon 5% (v/v))	Growth of isolate 205y (isolate 205y; Hydrocarbon 10% (v/v))	Growth of isolate 205y (isolate 205y; Hydrocarbon 25% (v/v))	Growth of isolate 205y (isolate 205y; Hydrocarbon 50% (v/v))	Growth of isolate 205y (isolate 205y; Hydrocarbon 75% (v/v))	Log P [2]	Effect on recombinant lipase activity (in words) ([1]; 25% (v/v) solvent)	Lipase activity enhanced (fold of control) ([1]; 25% (v/v) solvent)	Stability of lipase secreted by Bacillus sphaericus 205y in solvent (in words) [3]	Growth of 205y in solvent (in words) (isolate 205y)
CC#N [Acetonitrile]	0%	–	–	–	–	–	–	–	–	–	–	–
c1ccccc1 [Benzene]	–	++	+++	+++	++	++	++	–	–	–	–	–
C[S+](C)[O-] [Dimethyl sulfoxide]	10%	–	–	–	–	–	–	−1.22	–	–	–	–
CCCCCC [n-Hexane]	110%	–	–	–	–	–	–	3.6	slightly activated	1.10 folds	stable	–
Cc1ccc(C)cc1 [ρ-Xylene]	90%	++	+++	+++	+++	++	++	–	–	–	stable	good growth
Cc1ccccc1 [Toluene]	–	+++	+++	++	++	++	++	–	–	–	–	–
CCCCCCCCCCCCCCCC [Hexadecane]	0%	–	–	–	–	–	–	–	completely inhibited	–	–	–
